We go through six molecules from patent US6657052B1, “Biomolecular labeling” (University of Arkansas, priority 1997, dated 2003).

Structures are written as SMILES.

For data set [1] the following is noted: cited from earlier work; for pKa: H2O, 25° C., Lange's Handbook of Chemistry.
A short description of data set [2]: Hydrolysis of kinetically formed trialkylphosphate in the presence of water (1H NMR). It counts as physicochemical.
Source text: (§1) 3.3 Kinetic favorability of phosphotriester formation over hydrolysis in the presence of water. The reaction of quinone methide 7 and two equivalents of dibenzylphosphoric acid in the presence of excess water (˜200 equivalents for a homogeneous solution) afforded only trialkylphosphate 8 as the product in the equilibrium by 1H NMR analysis. […] Trialkylphosphate 8 is the kinetic product. A similar amount of 8 is produced in the presence of a much higher concentration of water (3,000 equivalents forming a bilayer) at ambient temperature after 30 minutes. […] Hydrolysis to benzyl alcohol appears to be the thermodynamic product^39. Similar results of quinone methides reacting with amino acid derivatives under aqueous conditions have been reported by other researchers^43.
as §1, with “(3)” for “3.3”, “^1H” for “1H”, “product. […]” for “product^39. Similar results of quinone methides reacting with amino acid derivatives under aqueous conditions have been reported by other researchers^43.”

What is called pKa is the negative logarithm of the acid dissociation constant. For the molecule `Nc1cccc(O)c1` [3-aminophenol], the pKa in data set [1] is 9.83. `CCN(C)CC` [Et2MeN]: the pKa in data set [1] is 10.4. Take `N=C(N)N` [guanidine]: the pKa in data set [1] was 14.38.

With `CNC(=N)N` [methylguanidine], in data set [1], the pKa is reported as 14.1 and the “reported pKa values for various substituted guanidines” value is listed as 14.1. Turning to `N=C(N)Nc1ccccc1` [phenylguanidine], the “reported pKa values for various substituted guanidines” value in data set [1] was 10.8. As for `Cc1cc(COP(=O)(OCc2ccccc2)OCc2ccccc2)cc(C)c1O` [trialkylphosphate 8], the “hydrolysis to benzyl alcohol” value in data set [2] (3,000 equivalents water forming a bilayer, ambient temperature, after 18 hours) is “complete conversion to benzyl alcohol”; in data set [2] (excess water (~200 equivalents, homogeneous solution), 18 hours at ambient temperature) it was “Minor amounts of the benzyl alcohol hydrolysis product”.
